Legend:
USP25 = USP25 (Homo sapiens (Human), UniProt Q9UHP3); test: Ubiquitin-Rhodamine 110 Assay for USP25 Activity; type: biochemical
Procedure: The assay was performed in a final volume of 9 μL in assay buffer containing 20 mM Tris-HCl (pH 8.0, (1M Tris-HC1, pH 8.0 solution; Corning 46-031-CM)), 3 mM BME (2-Mercaptoethanol; Sigma 63689-25ML-F), 0.03% BGG (0.22 μM filtered, Sigma, G7516-25G), and 0.01% Triton X-100 (Sigma, T9284-10L). Nanoliter quantities of 10-point, 3-fold serial dilution in DMSO was pre-dispensed into 1536 assay plates (Corning, #3724BC) for a final test concentration of 25 μM to 1.3 nM, top to lowest dose, respectively. Enzyme USP25, construct USP25-His6, (Boston Biochem E-546). Concentration and incubation times were optimized for the maximal signal-to-background while maintaining initial velocity conditions at a fixed substrate concentration. The final concentration of the enzyme in the assay was 75 pM. […] 3 μL of 2× enzyme was added to assay plates (pre-stamped with compound) preincubated with […] for 30 minutes and then 3 μL of 2× Ub-Rh110 was added to assay plates. Plates were incubated for 45 minutes at room temperature before addition of 3 μL of stop solution (final concentration of 10 mM citric acid (Sigma, 251275-500G)). Fluorescence was read on the Envision (Excitation at 485 nm and Emission at 535 nm; Perkin Elmer) or on the PheraSTAR (Excitation at 485 nm and Emission at 535 nm; BMG Labtech).
(§1) For both the USP28 and USP25 assay formats, data were reported as percent inhibition compared with control wells based on the following equation: % inh=1-((FLU-AveLow)/(AveHigh−AveLow)) where FLU=measured Fluorescence, AveLow=average Fluorescence of no enzyme control (n=16), and AveHigh=average Fluorescence of DMSO control (n=16). IC50 values were determined by curve fitting of the standard 4 parameter logistic fitting algorithm included in the Activity Base software package: IDBS XE Designer Model205. Data is fitted using the Levenburg Marquardt algorithm.

USP28 = USP28 (Homo sapiens (Human), UniProt Q96RU2); test: Ubiquitin-Rhodamine 110 Assay for USP28 Activity; type: biochemical
Procedure: The assay was performed in a final volume of 20 μL in assay buffer containing 20 mM Tris-HCl (pH 8.0, (1M Tris-HCl, pH 8.0 solution; Corning 46-031-CM)), 2 mM CaCl2 (1M Calcium Chloride solution; Sigma #21114) 2 mM BME (2-Mercaptoethanol; Sigma 63689-25ML -F), 0.01% Prionex (0.22 μM filtered, Sigma #G-0411), and 0.01% Triton X-100. Stock compound solutions were stored at −20° C. as 10 mM in DMSO. Up to 1 month prior to the assay, 2 mM test compounds were pre-dispensed into assay plates (Black, low volume; Corning #3820) and frozen at −20° C. Prestamped assay plates were allowed to come to room temperature on the day of the assay. For the screen, 100 nL of 2 mM was pre-dispensed for a final screening concentration of 10 μM (DMSO(fc)=0.5%). […] Plates were incubated stacked for 90 minutes at room temperature before fluorescence was read on the Envision (Excitation at 485 nm and Emission at 535 nm; Perkin Elmer) or on the PheraSTAR (Excitation at 485 nm and Emission at 535 nm; BMG Labtech).
For follow-up studies, the assay was performed in a final volume of 15 μL in assay buffer containing 20 mM Tris-HCl (pH 8.0, (1M Tris-HCl, pH 8.0 solution; Corning 46-031-CM)), 3 mM BME (2-Mercaptoethanol; Sigma 63689-25ML-F), 0.03% BGG (0.22 μM filtered, Sigma, G7516-25G), and 0.01% Triton X-100 (Sigma, T9284-10L). Nanoliter quantities of either an 8-point or 10-point, 3-fold serial dilution in DMSO was pre-dispensed into assay plates (Perkin Elmer, ProxiPlate-384 F Plus) for a final test concentration of either 25 μM to 11 nM or 25 μM to 1.3 nM, respectively. Enzyme USP28, construct USP28 (USP28-5(1-1077)-TEV-6*His; LifeSensors) concentration and incubation times were optimized for the maximal signal-to -background while maintaining initial velocity conditions at a fixed substrate concentration. The final concentration of the enzyme in the assay was 75 pM. […] 5 μL of 2× enzyme was added to assay plates (pre-stamped with compound) preincubated with USP28 for 30 minutes and then 5 μL of 2× Ub-Rh110 was added to assay plates. Plates were incubated stacked for 20 min at room temperature before 5 μL of stop solution was added (final concentration of 10 mM citric acid (Sigma, 251275-500G)). Fluorescence was read on the Envision (Excitation at 485 nm and Emission at 535 nm; Perkin Elmer) or on the PheraSTAR (Excitation at 485 nm and Emission at 535 nm; BMG Labtech).
as §1

Sequence of USP28 (Q96RU2 whole entry): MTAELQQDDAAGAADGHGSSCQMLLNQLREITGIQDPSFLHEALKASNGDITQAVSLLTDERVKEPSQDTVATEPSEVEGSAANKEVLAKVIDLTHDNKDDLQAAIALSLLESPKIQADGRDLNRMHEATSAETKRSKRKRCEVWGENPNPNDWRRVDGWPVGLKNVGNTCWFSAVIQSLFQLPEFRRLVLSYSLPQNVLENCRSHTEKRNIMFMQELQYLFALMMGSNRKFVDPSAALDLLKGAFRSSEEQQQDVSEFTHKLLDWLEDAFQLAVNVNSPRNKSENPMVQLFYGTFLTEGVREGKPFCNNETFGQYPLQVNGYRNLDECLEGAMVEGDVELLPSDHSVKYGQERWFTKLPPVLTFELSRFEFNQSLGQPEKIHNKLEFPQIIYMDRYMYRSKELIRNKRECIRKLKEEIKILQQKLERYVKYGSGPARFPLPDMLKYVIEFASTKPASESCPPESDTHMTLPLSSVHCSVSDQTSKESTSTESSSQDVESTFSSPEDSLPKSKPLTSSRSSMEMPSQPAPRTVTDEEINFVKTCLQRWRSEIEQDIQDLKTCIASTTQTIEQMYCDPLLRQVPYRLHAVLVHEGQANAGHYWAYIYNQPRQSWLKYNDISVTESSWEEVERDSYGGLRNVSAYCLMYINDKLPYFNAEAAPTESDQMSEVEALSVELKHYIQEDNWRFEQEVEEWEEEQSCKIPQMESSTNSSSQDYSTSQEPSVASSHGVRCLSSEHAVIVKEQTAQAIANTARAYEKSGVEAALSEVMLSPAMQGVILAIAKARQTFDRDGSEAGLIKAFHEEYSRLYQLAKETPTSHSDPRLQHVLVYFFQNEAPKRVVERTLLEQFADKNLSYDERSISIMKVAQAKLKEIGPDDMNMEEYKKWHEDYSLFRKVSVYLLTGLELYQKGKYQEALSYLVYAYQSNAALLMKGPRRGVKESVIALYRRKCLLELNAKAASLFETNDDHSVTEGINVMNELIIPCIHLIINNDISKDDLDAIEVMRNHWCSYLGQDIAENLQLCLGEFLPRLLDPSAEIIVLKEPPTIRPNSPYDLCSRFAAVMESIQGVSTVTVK
Sequence of USP25 (Q9UHP3 whole entry): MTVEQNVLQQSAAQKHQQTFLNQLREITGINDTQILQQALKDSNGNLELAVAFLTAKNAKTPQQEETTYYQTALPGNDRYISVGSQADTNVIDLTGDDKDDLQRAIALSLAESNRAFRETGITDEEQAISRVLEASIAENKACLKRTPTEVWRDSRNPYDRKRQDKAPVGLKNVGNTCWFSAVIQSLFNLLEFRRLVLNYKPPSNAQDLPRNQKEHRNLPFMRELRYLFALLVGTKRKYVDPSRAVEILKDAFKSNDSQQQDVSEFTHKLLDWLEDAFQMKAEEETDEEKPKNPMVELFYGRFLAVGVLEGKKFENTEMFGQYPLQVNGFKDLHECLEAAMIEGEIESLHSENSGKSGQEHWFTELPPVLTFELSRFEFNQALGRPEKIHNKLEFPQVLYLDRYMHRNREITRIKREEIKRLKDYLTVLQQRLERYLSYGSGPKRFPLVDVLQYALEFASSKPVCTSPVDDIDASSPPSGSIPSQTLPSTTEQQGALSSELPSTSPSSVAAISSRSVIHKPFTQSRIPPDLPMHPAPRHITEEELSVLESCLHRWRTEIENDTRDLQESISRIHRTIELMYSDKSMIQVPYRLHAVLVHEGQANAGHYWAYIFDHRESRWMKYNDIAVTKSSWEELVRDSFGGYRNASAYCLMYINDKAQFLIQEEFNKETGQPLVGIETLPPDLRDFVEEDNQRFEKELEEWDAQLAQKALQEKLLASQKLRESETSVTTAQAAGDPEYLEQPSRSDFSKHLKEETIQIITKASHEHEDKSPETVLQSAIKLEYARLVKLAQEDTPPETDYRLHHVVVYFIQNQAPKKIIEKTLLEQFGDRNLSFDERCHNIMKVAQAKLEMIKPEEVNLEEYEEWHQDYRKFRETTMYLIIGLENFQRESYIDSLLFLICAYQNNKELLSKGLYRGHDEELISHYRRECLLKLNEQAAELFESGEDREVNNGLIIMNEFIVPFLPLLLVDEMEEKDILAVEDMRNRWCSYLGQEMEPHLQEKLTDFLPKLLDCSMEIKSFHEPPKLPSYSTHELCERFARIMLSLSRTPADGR

| SMILES | IC50 (USP25) | IC50 (USP28) |
| --- | --- | --- |
| Cc1ccc2c(N)c(C(=O)NC[C@H](C)c3ccc(N4CC5CCC(C4)N5)c(C#N)c3)sc2n1 (single isomer, unassigned) [Example I-110] | 2 to 10 µM | 0.2 to 2 µM |
| Cc1nc2sc(C(=O)NC[C@@H](C)c3cc(F)c(N4CC5CCC(C4)N5)cc3F)c(N)c2cc1F (single isomer, unassigned) [Example I-111] | 0.2 to 2 µM | < 0.2 µM |
| Cc1nc2sc(C(=O)NC[C@H](C)c3cc(F)c(N4CC5CCC(C4)N5)cc3F)c(N)c2cc1F (single isomer, unassigned) [Example I-112] | 2 to 10 µM | 0.2 to 2 µM |
| Cc1ccc2c(N)c(C(=O)NCCc3ccc(C4CC5CCC(C4)N5)cc3)sc2n1 (single isomer, unassigned) [Example I-171, N-(4-(8-azabicyclo[3.2.1]octan-3-yl)phenethyl)-3-amino-6-methylthieno[2,3-b]pyridine-2-carboxamide] | 0.2 to 2 µM | 0.2 to 2 µM |
| Cc1ccc2c(N)c(C(=O)NCCc3ccc(C4CC5CCC(C4)N5)cc3)sc2n1 (single isomer, unassigned) [Example I-172, N-(4-(8-azabicyclo[3.2.1]octan-3-yl)phenethyl)-3-amino-6-methylthieno[2,3-b]pyridine-2-carboxamide] | < 0.2 µM | < 0.2 µM |
| Cc1ccc2c(N)c(C(=O)NCCc3ccc([C@H]4CCNC4)cc3)sc2n1 (single isomer, unassigned) [Example I-180] | 0.2 to 2 µM | < 0.2 µM |
| Cc1ccc2c(N)c(C(=O)NCCc3ccc([C@@H]4CCNC4)cc3)sc2n1 (single isomer, unassigned) [Example I-181] | 0.2 to 2 µM | < 0.2 µM |
| CN[C@@H]1CN(c2cc(F)c(CCNC(=O)c3sc4nc(C)ccc4c3N)cc2F)C[C@@H]1F (single isomer, unassigned) [Example I-211] | 2 to 10 µM | 0.2 to 2 µM |
| CN[C@H]1CN(c2cc(F)c(CCNC(=O)c3sc4nc(C)ccc4c3N)cc2F)C[C@H]1F (single isomer, unassigned) [Example I-212] | 0.2 to 2 µM | 0.2 to 2 µM |
| CN[C@@H]1CN(c2cc(F)c(CCNC(=O)c3sc4nc(C)ccc4c3N)cc2F)C[C@H]1F (single isomer, unassigned) [Example I-213] | 0.2 to 2 µM | 0.2 to 2 µM |
| CN[C@H]1CN(c2cc(F)c(CCNC(=O)c3sc4nc(C)ccc4c3N)cc2F)C[C@@H]1F (single isomer, unassigned) [Example I-214] | 2 to 10 µM | 0.2 to 2 µM |
| Cc1ccc2c(N)c(C(=O)NCCc3ccc(N4CCC5(CCCNC5)C4)cc3)sc2n1 (single isomer, unassigned) [Example I-216] | 0.2 to 2 µM | 0.2 to 2 µM |
| Cc1ccc2c(N)c(C(=O)NCCc3ccc(O[C@@H]4COC5(CNC5)C4)cc3)sc2n1 (single isomer, unassigned) [Example I-218] | 0.2 to 2 µM | 0.2 to 2 µM |
| Cc1ccc2c(N)c(C(=O)NCCc3ccc(O[C@H]4COC5(CNC5)C4)cc3)sc2n1 (single isomer, unassigned) [Example I-219] | 0.2 to 2 µM | 0.2 to 2 µM |
| C[C@H](O)c1ccc2c(N)c(C(=O)NCCc3ccc(N4CCNCC4)cc3)sc2n1 (single isomer, unassigned) [Example I-221] | 10 to 25 µM | 10 to 25 µM |
| C[C@@H](O)c1ccc2c(N)c(C(=O)NCCc3ccc(N4CCNCC4)cc3)sc2n1 (single isomer, unassigned) [Example I-222] | 0.2 to 2 µM | 0.2 to 2 µM |
| COc1cc(N2CCNCC2)ccc1CCNC(=O)c1sc2nc(C)ccc2c1N [Compound I-2] | < 0.2 µM | < 0.2 µM |
| Cc1ccc2c(N)c(C(=O)NCCc3ccc(N4CCNCC4)cc3F)sc2n1 [Compound I-5] | 0.2 to 2 µM | 0.2 to 2 µM |
| Cc1ccc2c(N)c(C(=O)NCCc3ccc(N4CCNCC4)c(C4CC4)c3)sc2n1 [Compound I-6] | 0.2 to 2 µM | < 0.2 µM |

| SMILES | IC50 (USP25) | IC50 (USP28) |
| --- | --- | --- |
| Cc1cc(C(F)(F)F)c2c(N)c(C(=O)NCCc3ccc(N4CCNCC4)c(F)c3)sc2n1 [Compound I-7] | < 0.2 µM | 0.2 to 2 µM |
| Cc1ccc2c(N)c(C(=O)NCCc3ccc(-c4cnn5c4CNCC5)cc3)sc2n1 [Compound I-12] | 0.2 to 2 µM | < 0.2 µM |
| Cc1ccc2c(N)c(C(=O)NCCc3ccc(C4CCNCC4)cc3)sc2n1 [Compound I-13] | 0.2 to 2 µM | < 0.2 µM |
| Cc1cc(C(F)F)c2c(N)c(C(=O)NCCc3ccc(N4CCNCC4)cc3)sc2n1 [Compound I-14] | < 0.2 µM | < 0.2 µM |
| Cc1ccc2c(N)c(C(=O)NCCc3ccc(N4CC5CCC(C4)N5)cc3)sc2n1 [Compound I-15] | 0.2 to 2 µM | < 0.2 µM |
| Nc1cc(C(F)F)c2c(N)c(C(=O)NCCc3ccc(N4CCNCC4)cc3)sc2n1 [Compound I-16] | 0.2 to 2 µM | < 0.2 µM |
| Cc1cc(N)nc2sc(C(=O)NCCc3ccc(N4CCNCC4)c(Cl)c3)c(N)c12 [Compound I-17] | 2 to 10 µM | 0.2 to 2 µM |
| Cc1ccc2c(N)c(C(=O)NCCc3ccc(N4CCNCC4)c4c3CCC4)sc2n1 [Compound I-18] | < 0.2 µM | < 0.2 µM |
| Cc1ccc2c(N)c(C(=O)NCCc3ccc(N4CC5CCC(C4)N5)c(Cl)c3)sc2n1 [Compound I-20] | 0.2 to 2 µM | 0.2 to 2 µM |
| Cc1ccc2c(N)c(C(=O)NCCc3ccc(N4CC5CCC(C4)N5)cc3Cl)sc2n1 [Compound I-21] | < 0.2 µM | < 0.2 µM |
| Cc1ccc2c(N)c(C(=O)NCCc3ccc(N4CC5CCC(C4)N5)cc3F)sc2n1 [Compound I-22] | 0.2 to 2 µM | < 0.2 µM |
| Cc1ccc2c(N)c(C(=O)NCCc3ccc(N4CCNCC4)c(-c4ccccc4)c3)sc2n1 [Compound I-23] | 2 to 10 µM | 0.2 to 2 µM |
| COc1cc(C)nc2sc(C(=O)NCCc3ccc(N4CCNCC4)cc3)c(N)c12 [Compound I-24] | 10 to 25 µM | 2 to 10 µM |
| Cc1ccc2c(N)c(C(=O)NCCc3ccc(N4CCN(CC5CCO5)CC4)cc3)sc2n1 (stereo not shown) [Compound I-25] | 2 to 10 µM | 0.2 to 2 µM |
| COCCN1CCN(c2ccc(CCNC(=O)c3sc4nc(C)ccc4c3N)cc2)CC1 [Compound I-26] | 2 to 10 µM | 0.2 to 2 µM |
| Nc1c(C(=O)NCCc2ccc(N3CCNCC3)cc2)sc2ncc(C(F)F)cc12 [Compound I-27] | 10 to 25 µM | 2 to 10 µM |
| Nc1c(C(=O)NCCc2ccc(N3CCNCC3)cc2)sc2ncc3c(c12)CCC3 [Compound I-28] | 2 to 10 µM | 2 to 10 µM |
| Nc1c(C(=O)NCCc2ccc(N3CCNCC3)cc2)sc2nc3c(cc12)CCC3 [Compound I-29] | 2 to 10 µM | 2 to 10 µM |
| Nc1c(C(=O)NCCc2ccc(N3CCNCC3)cc2)sc2nc3c(cc12)CCCC3 [Compound I-30] | 10 to 25 µM | 2 to 10 µM |

— patent publication US10913753B2, “Thienopyridine carboxamides as ubiquitin-specific protease inhibitors” (FORMA Therapeutics, Inc., priority 2016, dated 2021)
